How the values were obtained:
[1] = test system: TNBS-induced Colits in the rat; assay: TNBS-induced colitis in the rat, intrarectal administration; type: in vivo; details: for max Colon width: lowest dose that impacts the parameter to a relevant extent (inhibition of the TNBS-induced increase): TNBS 30 mg/kg rectally, compound intrarectal twice daily days -1 to +2, sacrificed day 2; for Thymus weight: lowest dose that impacts the parameter to a relevant extent (amplification of the TNBS-induced decrease) / Weight of adrenal glands: lowest dose that impacts the parameter to a relevant extent (inhibition of the TNBS-induced increase): TNBS colitis, intrarectal twice daily, side effect parameter
Description: As an animal model of Inflammatory Bowel Disease, the TNBS-induced Colits in the rat had been used.
48 h fasted rats (220-250 g b.w.) received rectally 0,9 ml of a solution consisting of 30% ethanol, 30 mg/kg TNBS (Trinitrobenzoesulfonic acid) in an oral distance of 8-9 cm from the anus. Compound administration days −1 to +2. Animals were sacrified on day 2. For intrarectal administration the compounds were solved in 1% ethanol, 10% Propyleneglycol and 20% Cyclodextrin. The used range of concentrations was identical for all compounds. Intrarectal administration schedule: twice daily. Compounds used: Ciclesonide and for comparison, Budesonide and Dexamethasone.
As parameters for the estimation of the pharmacological effects of the compounds, max. colon width had been used. As for the estimation of potential side effects, the weights of thymus and adrenal glands have been registrated.
The efficacy of a treatment was calculated on the reference of controls that received either no TNBS or TNBS rectally, establishing the range of 100 to 0% inhibition, respectively, in the drug screening.

[2] = human; cited from earlier work

| SMILES | max Colon width: lowest dose that impacts the parameter to a relevant extent (inhibition of the TNBS-induced increase) [1] | Thymus weight: lowest dose that impacts the parameter to a relevant extent (amplification of the TNBS-induced decrease) ([1]; highest assessed dose 6.9) | Weight of adrenal glands: lowest dose that impacts the parameter to a relevant extent (inhibition of the TNBS-induced increase) ([1]; highest assessed dose 6.9) | Thymus weight: lowest dose that impacts the parameter to a relevant extent (amplification of the TNBS-induced decrease) ([1]; highest assessed dose 6.9, listed as ciclesonide) | Oral bioavailability [2] | Weight of adrenal glands: lowest dose that impacts the parameter to a relevant extent (inhibition of the TNBS-induced increase) ([1]; highest assessed dose 6.9, listed as budenoside) |
| --- | --- | --- | --- | --- | --- | --- |
| C[C@@H]1C[C@H]2[C@@H]3CCC4=CC(=O)C=C[C@]4(C)[C@@]3(F)[C@@H](O)C[C@]2(C)[C@@]1(O)C(=O)CO [Dexamethasone] | 0.69 μmol/animal |  |  |  |  |  |
| CC(C)C(=O)OCC(=O)[C@@]12O[C@H](C3CCCCC3)O[C@@H]1C[C@H]1[C@@H]3CCC4=CC(=O)C=C[C@]4(C)[C@H]3[C@@H](O)C[C@@]12C [Ciclesonide, [11β,16α(R)]-16,17-[(cyclohexylmethylene)bis(oxy)]-11-hydroxy-21-(2-methyl-1-oxopropoxy)pregna-1,4-diene-3,20-dione] | 2.3 μmol/animal | n.e. @ 6.9 μmol/animal | 2.3 μmol/animal | > 6.9 μmol/animal | below 1% |  |
| CCCC1O[C@@H]2C[C@H]3[C@@H]4CCC5=CC(=O)C=C[C@]5(C)[C@H]4[C@@H](O)C[C@]3(C)[C@]2(C(=O)CO)O1 (stereo partly shown) [Budesonide] | 2.3-6.9 μmol/animal | 2.3 μmol/animal | n.e. @ 6.9 μmol/animal |  |  | does not reverse |
